Experimental data published in patent publication US20260306500A1, “METHOD OF INHIBITING ADENOSINE TRIPHOSPHATE SECRETION, METHOD OF INHIBITING HEPATIC STELLATE CELL ACTIVATION, METHOD OF DEACTIVATING HEPATIC STELLATE CELL, METHOD OF TREATING HEPATIC FIBROSIS, METHOD OF TREATING NON-ALCOHOLIC STEATOHEPATITIS, AND METHOD OF TREATING PSORIASIS” (Kurume University, priority 2023, published 2026).

Tests used:
[1] = tested on: human epidermal keratinocytes; assay: ATP secretion from human epidermal keratinocytes promoted by ionomycin; format: cell-based; settings: for ATP secretion level relative to control solution (RLU ratio): 1 μM imeglimin, N=3 (FIG. 4)
Protocol: Human epidermal keratinocytes (Cryopreserved HEK, Lot 1758, Cell Applications Inc.) were cultured using an Epivita Keratinocyte Growth Medium Kit according to the manufacturer's instructions. The procedure was as follows. A supplement medium was added to a hydrocortisone-containing basal medium included in the medium preparation kit to prepare a complete medium. The medium in the dish was removed by aspiration. The cells were washed with 5 ml of BSS (Gbco), and then the BSS was removed by aspiration. After addition of 5 to 6 ml of trypsin/EDTA solution (Gbco), the dish was incubated at 37° C. for 2 minutes. After addition of 5 ml of trypsin neutralization solution, the resulting cell suspension was transferred into two 15-ml Falcon tubes, and centrifuged at 200×g for 5 minutes. The supernatant was removed by aspiration, and the pelleted cell cluster was suspended in 2 ml of the medium at 4.5×10^5 cells/ml. An aliquot of the resulting cell suspension was cryopreserved, while another aliquot was cultured and subjected to measurement.
ATP secretion by human epidermal keratinocytes (hereinafter referred to as “keratinocytes”) was measured. Regarding control solutions, Krebs-Ringer HEPES supplemented with 0.2% BSA and 25 mM glucose (hereinafter also referred to as “Krebs/Iono(−)”) was used as a negative control, and a solution prepared by adding 5 μM ionomycin to this solution (hereinafter also referred to as “Krebs/Iono(+)”) was used as a positive control for ATP secretion. Ionomycin is a Ca^2+ ionophore. Addition of ionomycin to cells is known to promote influx of extracellular Ca^2+ into the cells to increase the intracellular Ca^2+ concentration, resulting in enhancement of ATP secretion. Test solutions were prepared by adding clodronate to Krebs/Iono(−) or Krebs/Iono(+) to a final concentration of 0.1 μM (hereinafter also referred to as “Clo/Iono(−)” or “Clo/Iono(+)”, respectively) (N=3).
Keratinocytes were cultured at 2.5×10^4 cells/well in a 24-well plate at 37° C. in 5% CO2 for 4 days. The medium was removed by aspiration, replaced with Krebs/Iono(−) or Clo/Iono(−), and incubated at 37° C. for 6 hours. These solutions were then removed by aspiration, and the content of each well incubated with Krebs/Iono(−) was replaced with 300 μl of a control solution (Krebs/Iono(−) or Krebs/Iono(+)), while the content of each well incubated with Clo/Iono(−) was replaced with 300 μl of a test solution (Clo/Iono(−) or Clo/Iono(+)). After further incubation at 37° C. for 20 minutes, 200 μl of the supernatant was collected. The collected supernatant was immediately treated on a heat block at 95° C. for 10 minutes, to inactivate ectonucleotidase. ATP in the supernatant was quantified using a Dojindo ATP assay kit−Luminescence (manufactured by Dojindo Laboratories).
Keratinocytes were cultured in the same manner as in Example 1, and ATP secretion from the keratinocytes was measured. Krebs/Iono(−), or a solution prepared by adding 10 μM imeglimin, 0.1 μM eicosapentaenoic acid (EPA), 1 μM EPA, or 10 μM clodronate to Krebs/Iono(−) was used (N=4).
After culturing keratinocytes, the medium was removed by aspiration, and replaced with Krebs/Iono(−), or Krebs/Iono(−) supplemented with 10 μM imeglimin, 0.1 μM EPA, 1 μM EPA, or 10 μM clodronate, followed by incubation for 6 hours. Subsequently, the solution was replaced with either a control solution (Krebs/Iono(−) or Krebs/Iono(+)) or a test solution (Krebs/Iono(+) supplemented with 10 μM imeglimin, 0.1 μM EPA, 1 μM EPA, or 10 μM clodronate), followed by incubation at 37° C. for 20 minutes and then collection of 200 μl of the supernatant. The collected supernatant was immediately treated on a heat block at 95° C. for 10 minutes to inactivate ectonucleotidase. ATP in the supernatant was quantified using a Dojindo ATP assay kit—Luminescence (manufactured by Dojindo Laboratories). […]

[2] = tested on: human epidermal keratinocytes; assay: ATP secretion from keratinocytes upon LPS stimulation; format: cell-based; settings: 18 hours, 10 μg/ml LPS, N=8 (FIG. 8)
Protocol: Keratinocytes were cultured in the same manner as in Example 1. Keratinocytes were cultured at 2.5×10^4 cells/well in a 24-well plate at 37° C. in 5% CO2 for 4 days. The medium was replaced with a test solution (Hanks' balanced salt solution (HBSS) (manufactured by Gibco) supplemented with imeglimin, metformin, or clodronate), and then incubation was performed at 37° C. in 5% CO2 for 18 hours. Thereafter, LPS (10 μg/ml) was added thereto, and incubation was further carried out for 10 minutes, followed by collection of 200 μl of the supernatant. The supernatant was immediately treated on a heat block at 95° C. for 10 minutes, and ATP in the supernatant was quantified using an ATP Assay Kit−Luminescence (manufactured by Dojindo) (N=8).

[3] = tested on: α-SMA-positive cells (stellate cells) in mouse liver; assay: TAA-induced activation of HSCs in mice: α-SMA immunostaining of liver sections; format: in vivo
Text: For immunohistochemical analysis, liver samples were fixed in 4% paraformaldehyde, embedded in paraffin, and then sectioned. The sections were stained with HE or PSR. In addition, the paraffin-embedded sections were subjected to immunostaining using an α-SMA monoclonal antibody (1:500, catalog No. A5228, manufactured by Sigma-Aldrich) and an F4/80 monoclonal antibody (1:200, catalog No. MCA497GA, manufactured by AbD Serotec). The cell specimens were observed using a microscope (BZ-X700 series, manufactured by Keyence) or a confocal laser microscope (FV1000, manufactured by Olympus Corporation). The number of F4/80-positive cells was counted in four high-power fields per section. The α-SMA-positive area and the PSR-positive area were quantified using the image analysis software Fiji-ImageJ (1.54f).
In accordance with Example 15, immunostaining of α-SMA in liver sections and observation by fluorescence microscopy were performed for the normal control group, the TAA group, and the TAA+IMG group, and for a TAA+Clo group, which was treated in the same manner as the TAA+IMG group except that clodronate, instead of imeglimin, was administered at 30 mg/kg by blending it in the drinking water from 1 week after the start of TAA administration.

O=P(O)(O)C(Cl)(Cl)P(=O)(O)O [clodronate]
ATP secretion level promoted by ionomycin ([1]; 0.1 μM clodronate, 6 h preincubation, 5 μM ionomycin, N=3 (FIG. 1)): almost the same as those in Krebs/Iono(−) and Clo/Iono(−)
LPS-stimulated ATP secretion ([2]; 10 μM): almost completely inhibited
TAA-induced increase in α-SMA-positive reaction ([3]; 30 mg/kg clodronate in drinking water (FIG. 29)): markedly suppressed

C=C(OP(=O)(O)O)C(=O)O [PEP, phosphoenolpyruvic acid]
ATP secretion inhibitory effect ([1]; PEP at not less than 3 mM (data not shown)): relatively strong ATP secretion inhibitory effect

C[C@@H]1N=C(N)NC(N(C)C)=N1 [imeglimin]
ATP secretion inhibitory effect at low concentration ([1]; 0.1 μM, 6 h preincubation, ionomycin): exhibit an ATP secretion inhibitory effect
ATP secretion level relative to control solution (RLU ratio) ([1]; incubation time 2 hours, ionomycin): about 85%
ATP secretion level relative to control solution (RLU ratio) ([1]; incubation time 6 hours, ionomycin): about 40%
ATP secretion inhibitory effect, comparison ([1]; 10 μM imeglimin vs 1 μM EPA and 10 μM clodronate): comparable to those of 1 μM EPA and 10 μM clodronate
ATP secretion inhibitory effect relative to metformin ([1]; 0.1, 1, 10 μM, 6 h preincubation, N=3 (FIG. 3)): slightly higher ATP secretion inhibitory effect than metformin
LPS-stimulated ATP secretion ([2]; 1 μM): almost completely inhibited
LPS-stimulated ATP secretion ([2]; 10 μM): almost completely inhibited
α-SMA immunostaining, effect compared with clodronate ([3]; imeglimin 200 mg/kg p.o. (FIG. 30)): effect similar to that of clodronate
